Test [1] relates to AsPC-1 pancreatic cancer cells. Format: in vivo, Balb/c nude mice. To be noted: allostatine-1 2.5 mg/kg daily s.c.; paclitaxel 8 mg/kg weekly i.p.
The next test concerns CT26 colon cancer cells. The experiment in a line: CT26 colon cancer liver metastasis model. Format: in vivo, Balb/c mice. To be noted: allostatine-1 5 mg/kg daily s.c.; CPT-11 100 mg/kg weekly i.p.

Where a name gives a salt, the structure may show the parent alone. Ends that are not written are not given here.

As to `CC(=O)O[C@H]1C(=O)[C@@]2(C)[C@H]([C@H](OC(=O)c3ccccc3)[C@]3(O)C[C@H](OC(=O)[C@H](O)[C@@H](NC(=O)c4ccccc4)c4ccccc4)C(C)=C1C3(C)C)[C@]1(OC(C)=O)CO[C@@H]1C[C@@H]2O` [Paclitaxel], the “Median survival” value in test [1] was 108 days.
On to “HGVSGWGQHGTHG [Allostatine-1, linear 13-amino acid analog peptide of alloferon-1]”, for which the “Median survival” value in test [1] was 97 days. The same compound showed a median survival days with CT26 colon cancer cells of 30 days.
`CCc1c2c(nc3ccc(OC(=O)N4CCC(N5CCCCC5)CC4)cc13)-c1cc3c(c(=O)n1C2)COC(=O)[C@]3(O)CC` [CPT-11, Irinotecan hydrochloride]: the median survival days in the test with CT26 colon cancer cells came to 35.5 days.

The values are drawn from US20210106648A1, “SYNERGISTIC COMBINATION OF CHEMOTHERAPY AND PEPTIDE FOR TREATING CANCER” (TOBEBIO Novel Drug Laboratory Co., Ltd., priority 2019, published 2021).
